From the NIST ThermoML archive (doi:10.1016/j.fluid.2007.08.013)
Where “and” joins values, the source holds several entries; their conditions need not be identical. Equal entries are not always repeated. Numbers after ± are expanded uncertainties.

Experiment: activity coefficient (dimensionless); of the first substance listed, at infinite dilution; xn = mol fraction of the nth substance listed
Conditions: Liquid, x1 = 0
[1] = 348.15 K, Rayleigh distillation
[2] = 273.35 K, relative headspace analysis
[3] = 278.15 K, relative headspace analysis
[4] = 288.15 K, relative headspace analysis
[5] = 308.15 K, relative headspace analysis

COCCOC [1,2-dimethoxyethane] + O
activity coefficient (318.15 K, Chromatography): 7.25 ± 0.49 | activity coefficient (328.15 K, non steady state GLC): 9.12 and 8.81 | activity coefficient (338.15 K, non steady state GLC): 11.2 and 11.1 | activity coefficient [1]: 12.2 ± 0.7 | activity coefficient (372.5 K, circulation still): 14.9 ± 0.9

C1COCO1 [1,3-dioxolane] + O
activity coefficient [2]: 8.13 ± 0.49 | activity coefficient [3]: 8.48 ± 0.51 | activity coefficient [4]: 9.12 ± 0.55 | activity coefficient (298.15 K, relative headspace analysis): 9.71 ± 0.58 | activity coefficient [5]: 10.2 ± 0.6 | activity coefficient (318.15 K, Chromatography): 10.6 ± 0.7 | activity coefficient (328.15 K, Chromatography): 10.9 ± 0.7 | activity coefficient (338.15 K, non steady state GLC): 11 and 11.4 | activity coefficient [1]: 11.3 ± 0.7 | activity coefficient (372.55 K, circulation still): 11.2 ± 0.7

C1COCCO1 [1,4-dioxane] + O
activity coefficient [2]: 3.53 ± 0.21 | activity coefficient [3]: 4 ± 0.24 | activity coefficient (288.15 K, headspace analysis): 5.17 ± 0.31 | activity coefficient [4]: 4.75 ± 0.29 | activity coefficient (298.15 K, headspace analysis): 5.88 ± 0.35 | activity coefficient (308.15 K, headspace analysis): 6.7 ± 0.4 | activity coefficient [5]: 6.15 ± 0.37 | activity coefficient (318.15 K, relative headspace analysis): 6.82 ± 0.41 | activity coefficient (328.15 K, non steady state GLC): 7.76 ± 0.47 | activity coefficient (338.15 K, Chromatography): 8.22 ± 0.56 | activity coefficient (338.15 K, non steady state GLC): 8.27 ± 0.5 | activity coefficient (348.15 K, rayleigh distillation): 8.43 ± 0.51 | activity coefficient (372.5 K, circulation still): 10.3 ± 0.6

CCOCC [diethyl ether] + O
activity coefficient (273.35 K, Chromatography): 33.9 ± 2.3 | activity coefficient (278.15 K, Chromatography): 41.2 ± 2.8 | activity coefficient (283.15 K, Chromatography): 49.4 ± 3.4 | activity coefficient (288.15 K, Chromatography): 58.5 ± 4 | activity coefficient (293.15 K, Chromatography): 68.6 ± 4.7 | activity coefficient (298.15 K, Chromatography): 77.1 ± 5.3 | activity coefficient (303.15 K, Chromatography): 88.8 ± 6.1 | activity coefficient (308.15 K, Chromatography): 98.8 ± 6.8 | activity coefficient (318.15 K, Chromatography): 121 ± 8.3 | activity coefficient (328.15 K, Chromatography): 140 ± 9.6

COCOC [dimethoxymethane] + O
activity coefficient (273.35 K, Chromatography): 10.8 ± 0.7 | activity coefficient (283.15 K, Chromatography): 13.7 ± 0.9 | activity coefficient (293.15 K, Chromatography): 15.6 ± 1.1 | activity coefficient (298.15 K, Chromatography): 16.9 ± 1.2 | activity coefficient (303.15 K, Chromatography): 18 ± 1.2 | activity coefficient (313.15 K, Chromatography): 19.9 ± 1.4 | activity coefficient (323.15 K, Chromatography): 22 ± 1.5 | activity coefficient (333.15 K, Chromatography): 23.9 ± 1.6

C1CCOC1 [tetrahydrofuran] + O
activity coefficient (273.35 K, classical headspace analysis): 9.74 ± 0.58 | activity coefficient (278.15 K, classical headspace analysis): 11.1 ± 0.7 | activity coefficient (288.15 K, Chromatography): 14.3 ± 1 | activity coefficient (298.15 K, Chromatography): 17.6 ± 1.2 | activity coefficient (308.15 K, Chromatography): 20.6 ± 1.4 | activity coefficient (318.15 K, Chromatography): 24 ± 1.6 | activity coefficient (328.15 K, non steady state GLC): 26.8 and 28.1

C1CCOCC1 [tetrahydropyran] + O
activity coefficient [2]: 39.6 ± 2.4 | activity coefficient (283.15 K, relative headspace analysis): 44.9 ± 2.7 | activity coefficient (288.15 K, Chromatography): 58 ± 4 | activity coefficient (298.15 K, Chromatography): 70.5 ± 4.8 | activity coefficient (308.15 K, Chromatography): 83.4 ± 5.7 | activity coefficient (318.15 K, Chromatography): 96.2 ± 6.6 | activity coefficient (328.15 K, Chromatography): 108 ± 7.4
